According to ChEMBL document CHEMBL1201862, “PubChem BioAssay data set” (2004):
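All cell lines were grown in 96-well plates and treated with compound for 48 hours. Abbreviation: GI50, concentration required for 50% inhibition of growth.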 Calls of active or inactive are those of the source. Cut-off read from the data, not from the text of the source: active = GI50 up to about 1.1 µM and inactive = higher.

Key:
Experiment in all cases: NCI anticancer screen, dose series, 48 h
[1] = tested on: SNB-75
[2] = tested on: UO-31
[3] = tested on: CCRF-CEM
[4] = tested on: UACC-257
[5] = tested on: HT-29
[6] = tested on: SF-268
[7] = tested on: NCI-H522
[8] = tested on: OVCAR-5
[9] = tested on: SN12C
[10] = tested on: HOP-92
[11] = tested on: HL-60
[12] = tested on: SK-OV-3
[13] = tested on: MCF7
[14] = tested on: RXF 393
[15] = tested on: A549
[16] = tested on: LOX IMVI
[17] = tested on: OVCAR-8
[18] = tested on: HOP-62
[19] = tested on: PC-3
[20] = tested on: MDA-MB-435
[21] = tested on: COLO 205
[22] = tested on: EKVX
[23] = tested on: SK-MEL-2
[24] = tested on: SF-295
[25] = tested on: SR
[26] = tested on: NCI-H460
[27] = tested on: SNB-19
[28] = tested on: MOLT-4
[29] = tested on: UACC-62
[30] = tested on: TK-10
[31] = tested on: BT-549
[32] = tested on: Malme-3M
[33] = tested on: HCC 2998
[34] = tested on: SF-539
[35] = tested on: MDA-N
[36] = tested on: M14
[37] = tested on: HCT-15
[38] = tested on: DU-145
[39] = tested on: SK-MEL-28
[40] = tested on: KM12
[41] = tested on: OVCAR-3
[42] = tested on: Hs-578T
[43] = tested on: NCI-H226
[44] = tested on: CAKI-1
[45] = tested on: K562
[46] = tested on: SW-620
[47] = tested on: 786-0
[48] = tested on: A498
[49] = tested on: T47D
[50] = tested on: NCI-H23
[51] = tested on: SK-MEL-5
[52] = tested on: IGROV-1
[53] = tested on: HCT-116
[54] = tested on: MDA-MB-231
[55] = tested on: ACHN
[56] = tested on: OVCAR-4
[57] = tested on: NCI/ADR-RES
[58] = tested on: U-251
[59] = tested on: RPMI-8226

`CC1=NN(C(=O)c2ccncc2)C(=O)C1` was tested, and the GI50 [1] was > 100 µM (inactive), the GI50 [2] was > 100 µM (inactive) and the GI50 [3] was > 100 µM (inactive). For the same compound, the GI50 [4] was > 100 µM (inactive), the GI50 [5] was > 100 µM (inactive) and the GI50 [6] was > 100 µM (inactive). The GI50 [7] was > 100 µM (inactive), the GI50 [8] was > 100 µM (inactive) and the GI50 [9] was 29.2 µM (inactive). For the same compound, the GI50 [10] was > 100 µM (inactive), the GI50 [11] was > 100 µM (inactive) and the GI50 [12] was > 100 µM (inactive). For the same compound, the GI50 [13] was > 100 µM (inactive), the GI50 [14] was > 100 µM (inactive) and the GI50 [15] was > 100 µM (inactive). For the same compound, the GI50 [16] was > 100 µM (inactive), the GI50 [17] was > 100 µM (inactive) and the GI50 [18] was > 100 µM (inactive). The GI50 [19] was > 100 µM (inactive), the GI50 [20] was > 100 µM (inactive) and the GI50 [21] was > 100 µM (inactive). The GI50 [22] was > 100 µM (inactive), the GI50 [23] was > 100 µM (inactive) and the GI50 [24] was > 100 µM (inactive). The GI50 [25] was > 100 µM (inactive), the GI50 [26] was > 100 µM (inactive) and the GI50 [27] was > 100 µM (inactive). The GI50 [28] was 89.9 µM (inactive), the GI50 [29] was > 100 µM (inactive) and the GI50 [30] was > 100 µM (inactive). The GI50 [31] was > 100 µM (inactive), the GI50 [32] was > 100 µM (inactive) and the GI50 [33] was > 100 µM (inactive). For the same compound, the GI50 [34] was > 100 µM (inactive), the GI50 [35] was > 100 µM (inactive) and the GI50 [36] was > 100 µM (inactive). For the same compound, the GI50 [37] was > 100 µM, the GI50 [38] was > 100 µM (inactive) and the GI50 [39] was > 100 µM (inactive). The GI50 [40] was > 100 µM (inactive), the GI50 [41] was > 100 µM (inactive) and the GI50 [42] was > 100 µM (inactive). For the same compound, the GI50 [43] was > 100 µM (inactive), the GI50 [44] was > 100 µM (inactive) and the GI50 [45] was > 100 µM (inactive). The GI50 [46] was > 100 µM (inactive), the GI50 [47] was > 100 µM (inactive) and the GI50 [48] was > 100 µM (inactive). The GI50 [49] was > 100 µM (inactive), the GI50 [50] was > 100 µM (inactive) and the GI50 [51] was > 100 µM (inactive). The GI50 [52] was > 100 µM (inactive), the GI50 [53] was > 100 µM (inactive) and the GI50 [54] was 32.2 µM (inactive). For the same compound, the GI50 [55] was > 100 µM (inactive), the GI50 [56] was > 100 µM (inactive) and the GI50 [57] was > 100 µM (inactive). The GI50 [58] was > 100 µM (inactive).

In the case of `O=C(N[C@H]1CCC[C@H]1C(=O)Nc1ccc(C(F)(F)F)cc1)OCc1ccccc1`, the GI50 [2] is reported as > 100 µM (inactive), the GI50 [3] is reported as > 100 µM (inactive) and the GI50 [4] is reported as > 100 µM (inactive). The GI50 [5] was > 100 µM (inactive), the GI50 [6] was > 100 µM (inactive) and the GI50 [7] was 54.2 µM (inactive). For the same compound, the GI50 [8] was > 100 µM (inactive), the GI50 [9] was > 100 µM (inactive) and the GI50 [10] was > 100 µM (inactive). For the same compound, the GI50 [11] was > 100 µM (inactive), the GI50 [12] was > 100 µM (inactive) and the GI50 [13] was > 100 µM (inactive). The GI50 [14] was > 100 µM (inactive), the GI50 [15] was > 100 µM (inactive) and the GI50 [16] was > 100 µM (inactive). The GI50 [17] was > 100 µM (inactive), the GI50 [18] was > 100 µM (inactive) and the GI50 [19] was > 100 µM (inactive). The GI50 [20] was > 100 µM (inactive), the GI50 [21] was > 100 µM (inactive) and the GI50 [59] was > 100 µM (inactive). For the same compound, the GI50 [22] was > 100 µM (inactive), the GI50 [23] was > 100 µM (inactive) and the GI50 [24] was > 100 µM (inactive). The GI50 [25] was > 100 µM (inactive), the GI50 [26] was > 100 µM (inactive) and the GI50 [27] was > 100 µM (inactive). For the same compound, the GI50 [28] was > 100 µM (inactive), the GI50 [29] was > 100 µM (inactive) and the GI50 [30] was > 100 µM (inactive). For the same compound, the GI50 [31] was > 100 µM (inactive), the GI50 [32] was > 100 µM (inactive) and the GI50 [33] was > 100 µM (inactive). For the same compound, the GI50 [34] was > 100 µM (inactive), the GI50 [35] was > 100 µM (inactive) and the GI50 [36] was > 100 µM (inactive). The GI50 [37] was > 100 µM, the GI50 [38] was > 100 µM (inactive) and the GI50 [39] was > 100 µM (inactive). The GI50 [40] was > 100 µM (inactive), the GI50 [41] was > 100 µM (inactive) and the GI50 [42] was 88.5 µM (inactive). For the same compound, the GI50 [43] was 65.3 µM (inactive), the GI50 [44] was > 100 µM (inactive) and the GI50 [45] was > 100 µM (inactive). For the same compound, the GI50 [46] was > 100 µM (inactive), the GI50 [47] was > 100 µM (inactive) and the GI50 [48] was > 100 µM (inactive). The GI50 [49] was > 100 µM (inactive), the GI50 [50] was > 100 µM (inactive) and the GI50 [51] was > 100 µM (inactive). The GI50 [52] was > 100 µM (inactive), the GI50 [53] was > 100 µM (inactive) and the GI50 [54] was > 100 µM (inactive). The GI50 [55] was > 100 µM (inactive), the GI50 [56] was > 100 µM (inactive) and the GI50 [57] was > 100 µM (inactive). For the same compound, the GI50 [58] was > 100 µM (inactive).
